Laboratory results from patent publication US7087631B2, “Aryltetrazole compounds, and compositions thereof” (Inotek Pharmaceuticals Corporation, priority 2002, dated 2006).

Legend:
xanthine oxidase = xanthine oxidase (Homo sapiens, UniProt P47989); assay: Xanthine oxidase inhibitory activity, 96 well plate, kinetic reading at 295 nm; assay type: biochemical
gut ischemia reperfusion = assay: Gut ischemia reperfusion-induced hyperpermeability and mortality; assay type: in vivo; conditions: mice; for Survival % (6 h): 6 hours of reperfusion, control 60; for Survival % (2 days): 2 days of reperfusion, control 0; for Gut Permeability: intraperitoneal, control 100%
Procedure: Illustrative 5-Aryltetrazole Compounds exert protective effects in various models of organ ischemia and reperfusion. For example, intraperitoneal administration of illustrative 5-Aryltetrazole Compounds retards the progression of gut ischemia reperfusion-induced hyperpermeability and mortality in mice. Results are expressed as % decrease in gut hyperpermeability and as mortality as observed after 6 hours and 2 days of reperfusion. Studies were conducted as described in Shock, 14(2): 134-141 (2000). There was a notable dose-dependent effect on gut hyperpermeability and there was an improvement in survival rate, as tested at the highest dose of both levels.

[1] = test system: thioacetamide model of hepatic failure; assay: Toxic liver injury model (thioacetamide model of hepatic failure), serum AST; assay type: in vivo; conditions: mice; for serum AST levels (result in words): summary of the table; for Percent Inhibition of Serum AST Levels: thioacetamide 400 mg/kg i.p., mean ±SEM (n=7-10)
Procedure: Illustrative 5-Aryltetrazole Compounds exert hepatoprotective effects in a thioacetamide model of hepatic failure. […] […] Results are expressed as percent inhibtion, mean ±SEM (n=7-10). Studies were conducted as described in Biochim. Biophys. Acta. 1536(1):21-30 (2001).

[2] = test system: collagen-induced arthritis; assay: Collagen-induced arthritis; assay type: in vivo; conditions: mice; for % Incidence / Mean Severity: collagen-induced arthritis
Procedure: An illustrative 5-Aryltetrazole Compound exerts protective effects in a model of collagen-induced arthritis in mice. Results are expressed as incidence and severity over time. Studies were conducted as described in Inflamm. Res. 50(11):561-569 (2001). The results illustrate that the administration of Compound JO, an illustrative 5-Aryltetrazole Compound, reduced incidence of collagen-induced arthritis in mice.

severe hemorrhagic shock = conditions: canine, cited from earlier work; for benefit (survival): given alone after shock had been produced
hemorrhagic shock = conditions: canine model of hemorrhagic shock; cited from earlier work

Chain of xanthine oxidase (P47989 whole entry, species assumed, the tested form may be a part): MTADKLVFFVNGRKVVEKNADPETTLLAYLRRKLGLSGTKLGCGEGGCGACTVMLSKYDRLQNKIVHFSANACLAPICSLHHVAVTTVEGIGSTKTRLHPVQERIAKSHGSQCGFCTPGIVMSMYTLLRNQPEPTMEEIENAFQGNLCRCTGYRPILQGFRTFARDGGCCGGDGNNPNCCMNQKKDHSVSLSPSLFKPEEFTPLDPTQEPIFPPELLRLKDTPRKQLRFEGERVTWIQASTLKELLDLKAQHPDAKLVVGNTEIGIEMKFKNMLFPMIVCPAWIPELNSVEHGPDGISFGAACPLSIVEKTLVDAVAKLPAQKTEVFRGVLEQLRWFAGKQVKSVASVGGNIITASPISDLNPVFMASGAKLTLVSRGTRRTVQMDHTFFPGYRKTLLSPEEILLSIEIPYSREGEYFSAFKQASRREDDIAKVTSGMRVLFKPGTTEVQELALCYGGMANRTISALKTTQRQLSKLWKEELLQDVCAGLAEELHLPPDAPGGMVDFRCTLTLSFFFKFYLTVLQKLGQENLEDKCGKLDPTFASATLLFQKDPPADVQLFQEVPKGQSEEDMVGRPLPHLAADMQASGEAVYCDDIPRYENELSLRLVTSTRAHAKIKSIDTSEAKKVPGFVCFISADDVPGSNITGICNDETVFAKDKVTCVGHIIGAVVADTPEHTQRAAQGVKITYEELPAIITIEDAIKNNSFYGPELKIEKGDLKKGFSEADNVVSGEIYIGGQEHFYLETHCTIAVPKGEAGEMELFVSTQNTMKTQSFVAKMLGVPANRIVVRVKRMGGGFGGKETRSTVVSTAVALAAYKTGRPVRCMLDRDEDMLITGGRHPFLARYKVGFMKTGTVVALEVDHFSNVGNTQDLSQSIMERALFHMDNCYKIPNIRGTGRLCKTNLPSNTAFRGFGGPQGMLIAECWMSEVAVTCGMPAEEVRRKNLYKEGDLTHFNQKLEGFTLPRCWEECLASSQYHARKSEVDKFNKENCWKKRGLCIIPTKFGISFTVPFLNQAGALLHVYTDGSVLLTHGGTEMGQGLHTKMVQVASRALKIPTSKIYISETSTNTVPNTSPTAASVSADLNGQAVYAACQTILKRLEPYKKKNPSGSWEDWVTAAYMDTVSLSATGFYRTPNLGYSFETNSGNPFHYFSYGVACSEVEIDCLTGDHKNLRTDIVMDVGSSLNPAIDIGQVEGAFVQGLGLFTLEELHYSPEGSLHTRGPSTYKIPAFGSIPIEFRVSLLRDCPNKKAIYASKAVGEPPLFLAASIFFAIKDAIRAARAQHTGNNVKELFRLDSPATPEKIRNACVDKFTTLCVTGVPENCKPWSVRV

Row | PERCENT XANTHINE OXIDASE INHIBITION (xanthine oxidase; compound concentration 0.03 μM) | PERCENT XANTHINE OXIDASE INHIBITION (xanthine oxidase; compound concentration 0.1 μM) | PERCENT XANTHINE OXIDASE INHIBITION (xanthine oxidase; compound concentration 1 μM) | SMILES | serum AST levels (result in words) [1] | Percent Inhibition of Serum AST Levels ([1]; single oral dose 3 mg/kg) | Percent Inhibition of Serum AST Levels ([1]; single oral dose 10 mg/kg) | other results
1 | 44% | 68% | 97% | O=C(O)c1ccc(NC(=O)c2ccc(-c3nnn[nH]3)cc2)cc1 [Compound IS] | inhibit serum AST levels |  | 33 ± 5% | 
2 | 20% | 41% | 88% | Cc1ccc(NC(=O)c2ccc(-c3nnn[nH]3)cc2)cc1 [Compound JN] |  | 11 ± 7% | 31 ± 7% | 
3 | 46% | 74% | 98% | O=C(Nc1ccc(Cl)cc1)c1ccc(-c2nnn[nH]2)cc1 [IX] | inhibit serum AST levels |  | 31 ± 1% | 
4 | 16% | 38% | 89% | CCc1ccc(NC(=O)c2ccc(-c3nnn[nH]3)cc2)cc1 [JM] |  | 12 ± 7% | 31 ± 7% | 
5 |  |  |  | Oc1ncnc2[nH]ncc12 [allopurinol] |  |  |  | benefit (survival) (severe hemorrhagic shock): no benefit; increase in survival (severe hemorrhagic shock; pre-treatment): 6 fold; survival (result in words) (hemorrhagic shock): significantly improved survival
6 |  |  |  | O=c1[nH]cnc2nc[nH]c12 [hypoxanthine] |  |  |  | benefit (survival) (severe hemorrhagic shock): no benefit

Row | SMILES | PERCENT XANTHINE OXIDASE INHIBITION (xanthine oxidase; compound concentration 0.03 μM) | PERCENT XANTHINE OXIDASE INHIBITION (xanthine oxidase; compound concentration 0.1 μM) | PERCENT XANTHINE OXIDASE INHIBITION (xanthine oxidase; compound concentration 1 μM) | serum AST levels (result in words) [1] | Percent Inhibition of Serum AST Levels ([1]; single oral dose 3 mg/kg) | Percent Inhibition of Serum AST Levels ([1]; single oral dose 10 mg/kg) | other results
7 | CC(C)Cc1ccc(NC(=O)c2ccc(-c3nnn[nH]3)cc2)cc1 [Compound IG] | 33% | 59% | 93% | inhibit serum AST levels | 25 ± 4% | 46 ± 8% | Survival % (6 h) (gut ischemia reperfusion; 30 mg/kg): 87%; Survival % (2 days) (gut ischemia reperfusion; 30 mg/kg): 20%; Gut Permeability (gut ischemia reperfusion; 3 mg/kg): 73%; Gut Permeability (gut ischemia reperfusion; 10 mg/kg): 69%; Gut Permeability (gut ischemia reperfusion; 30 mg/kg): 47%
8 | CC(C)(C)c1ccc(NC(=O)c2ccc(-c3nnn[nH]3)cc2)cc1 [Compound JO] | 18% | 36% | 83% |  | 24 ± 9% | 36 ± 12% | incidence of collagen-induced arthritis (result in words) ([2]; after 33 days, versus untreated mice): significant decrease; % Incidence ([2]; day 25): 20%; Mean Severity ([2]; day 25): 0; % Incidence ([2]; day 27): 35%; Mean Severity ([2]; day 27): 0; % Incidence ([2]; day 29): 45%; Mean Severity ([2]; day 29): 3; % Incidence ([2]; day 31): 75%; Mean Severity ([2]; day 31): 8; % Incidence ([2]; day 33): 85%; Mean Severity ([2]; day 33): 8; collagen-induced arthritis (result in words) ([2]; summary): inhibits collagen-induced arthritis; Survival % (6 h) (gut ischemia reperfusion; 30 mg/kg): 87%; Survival % (2 days) (gut ischemia reperfusion; 30 mg/kg): 13%; Gut Permeability (gut ischemia reperfusion; 30 mg/kg): 39%
